Measurements from US9765092B2, “Tricyclic piperidine compounds” (ACTELION PHARMACEUTICALS LTD, priority 2013, dated 2017).

Molecular target: human TPH1 (Homo sapiens (Human), UniProt P17752)
Experiment: Biochemical in vitro assay using fluorescence readout (TPH1 inhibition)
Conditions: full length human TPH1, 40 μM L-tryptophan, 15° C., 60 minutes, fluorescence at 540 nm; mean if determined several times

Sequence of human TPH1 (P17752 whole entry): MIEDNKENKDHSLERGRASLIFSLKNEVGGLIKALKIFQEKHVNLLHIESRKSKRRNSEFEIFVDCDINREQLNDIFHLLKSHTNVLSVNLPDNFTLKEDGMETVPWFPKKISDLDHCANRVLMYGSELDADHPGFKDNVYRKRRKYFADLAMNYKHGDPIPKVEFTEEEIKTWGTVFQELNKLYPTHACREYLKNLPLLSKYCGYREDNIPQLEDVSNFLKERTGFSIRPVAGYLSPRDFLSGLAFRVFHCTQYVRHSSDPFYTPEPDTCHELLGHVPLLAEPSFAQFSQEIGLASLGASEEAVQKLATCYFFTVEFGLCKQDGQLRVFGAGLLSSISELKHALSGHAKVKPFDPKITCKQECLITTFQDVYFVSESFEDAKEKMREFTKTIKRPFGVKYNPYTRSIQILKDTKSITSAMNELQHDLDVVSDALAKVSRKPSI

Compound | IC50
Cc1nn2c3c(nc2s1)CCN(C(=O)COc1ccc(N2CCOCC2)nc1Cl)C3c1cc(C(=O)N(C)C)cs1 (stereo not shown) [Example 1.9.1, 5-(6-(2-((2-chloro-6-morpholinopyridin-3-yl)oxy)acetyl)-2-methyl-5,6,7,8-tetrahydro-[1,3,4]thiadiazolo[2′,3′:2,3]imidazo[4,5-c]pyridin-5-yl)-N,N-dimethyl-thiophene-3-carboxamide] | 5 nM
Cc1nn2c3c(nc2s1)CCN(C(=O)COc1ccc(N2CC(F)(F)C2)nc1Cl)C3c1cc(C(=O)N(C)C)cs1 (stereo not shown) [Example 1.9.2, 5-(6-(2-((2-Chloro-6-(3,3-difluoroazetidin-1-yl)pyridin-3-yl)oxy)acetyl)-2-methyl-5,6,7,8-tetrahydro-[1,3,4]thiadiazolo[2′,3′:2,3]imidazo[4,5-c]pyridin-5-yl)-N,N-dimethylthiophene-3-carboxamide] | 32 nM
Cc1nn2c3c(nc2s1)CCN(C(=O)COc1ccc(C(F)(F)F)cc1Cl)C3c1cc(C(=O)N(C)C)cs1 (stereo not shown) [Example 1.9.3, 5-(6-(2-(2-Chloro-4-(trifluoromethyl)phenoxy)acetyl)-2-methyl-5,6,7,8-tetrahydro-[1,3,4]thiadiazolo[2′,3′:2,3]imidazo[4,5-c]pyridin-5-yl)-N,N-dimethylthiophene-3-carboxamide] | 77 nM
Cc1nn2c3c(nc2s1)CCN(C(=O)COc1ccc(NS(C)(=O)=O)nc1Cl)C3c1cc(C(=O)N(C)C)cs1 (stereo not shown) [Example 1.9.4, 5-(6-(2-((2-Chloro-6-(methylsulfonamido)pyridin-3-yl)oxy)acetyl)-2-methyl-5,6,7,8-tetra-hydro-[1,3,4]thiadiazolo[2′,3′:2,3]imidazo[4,5-c]pyridin-5-yl)-N,N-dimethylthiophene-3-carboxamide] | 32 nM
Cc1nn2c3c(nc2s1)CCN(C(=O)COc1ccc(C(=O)N(C)C)nc1Cl)C3c1cc(C(=O)N(C)C)cs1 (stereo not shown) [Example 1.9.5, 6-Chloro-5-(2-(5-(4-(dimethylcarbamoyl)thiophen-2-yl)-2-methyl-7,8-dihydro-[1,3,4]-thiadiazolo[2′,3′:2,3]imidazo[4,5-c]pyridin-6(5H)-yl)-2-oxoethoxy)-N,N-dimethyl-picolinamide] | 22 nM

Same assay, conditions: human TPH1, fluorescence readout

Compound | IC50
Cc1nn2c3c(nc2s1)CCN(C(=O)COc1ccc[n+]([O-])c1Cl)C3c1ccc(C2CC2)cc1F (stereo not shown) [Example 1.6.19, 2-chloro-3-(2-(5-(4-cyclopropyl-2-fluorophenyl)-2-methyl-7,8-dihydro-[1,3,4]thiadiazolo[2′,3′:2,3]imidazo[4,5-c]pyridin-6(5H)-yl)-2-oxoethoxy)pyridine-1-oxide] | 250 nM
CCc1c(OCC(=O)N2CCc3nc4sc(C)nn4c3C2c2ccc(C3CC3)cc2F)ccc(C)[n+]1[O-] (stereo not shown) [Example 1.6.20, 3-(2-(5-(4-cyclopropyl-2-fluorophenyl)-2-methyl-7,8-dihydro-[1,3,4]thiadiazolo[2′,3′:2,3]imidazo[4,5-c]pyridin-6(5H)-yl)-2-oxoethoxy)-2-ethyl-6-methylpyridine-1-oxide] | 94 nM
COC(=O)c1ccc(OCC(=O)N2CCc3nc4sc(C)nn4c3C2c2ccc(C3CC3)cc2F)c(Cl)n1 (stereo not shown) [Example 1.6.21, Methyl 6-chloro-5-(2-(5-(4-cyclopropyl-2-fluorophenyl)-2-methyl-7,8-dihydro-[1,3,4]thiadiazolo[2′,3′:2,3]imidazo[4,5-c]pyridin-6(5H)-yl)-2-oxoethoxy)picolinate] | 8 nM
Cc1nn2c3c(nc2s1)CCN(C(=O)COc1ccc(N(C)C)nc1Cl)C3c1ccc(C2CC2)cc1F (stereo not shown) [Example 1.6.22, 2-((2-chloro-6-(dimethylamino)pyridin-3-yl)oxy)-1-(5-(4-cyclopropyl-2-fluorophenyl)-2-methyl-7,8-dihydro-[1,3,4]thiadiazolo[2′,3′:2,3]imidazo[4,5-c]pyridin-6(5H)-yl)ethanone] | 3 nM
Cc1nn2c3c(nc2s1)CCN(C(=O)COc1ccc(C#N)nc1Cl)C3c1ccc(C2CC2)cc1F (stereo not shown) [Example 1.6.23, 6-chloro-5-(2-(5-(4-cyclopropyl-2-fluorophenyl)-2-methyl-7,8-dihydro-[1,3,4]thiadiazolo[2′,3′:2,3]imidazo[4,5-c]pyridin-6(5H)-yl)-2-oxoethoxy)picolinonitrile] | 8 nM
Cc1nn2c3c(nc2s1)CCN(C(=O)COc1ccc(C(F)(F)F)nc1Cl)C3c1ccc(C2CC2)cc1F (stereo not shown) [Example 1.6.24, 2-((2-chloro-6-(trifluoromethyl)pyridin-3-yl)oxy)-1-(5-(4-cyclopropyl-2-fluorophenyl)-2-methyl-7,8-dihydro-[1,3,4]thiadiazolo[2′,3′:2,3]imidazo[4,5-c]pyridin-6(5H)-yl)ethanone] | 7 nM
Cc1nn2c3c(nc2s1)CCN(C(=O)COc1ccc(C(=O)N(C)C)nc1Cl)C3c1ccc(C2CC2)cc1F (stereo not shown) [Example 1.6.25, 6-chloro-5-(2-(5-(4-cyclopropyl-2-fluorophenyl)-2-methyl-7,8-dihydro-[1,3,4]thiadiazolo[2′,3′:2,3]imidazo[4,5-c]pyridin-6(5H)-yl)-2-oxoethoxy)-N,N-dimethylpicolinamide] | 4 nM
Cc1nn2c3c(nc2s1)CCN(C(=O)COc1ccc(NS(C)(=O)=O)nc1Cl)C3c1ccc(C2CC2)cc1F (stereo not shown) [Example 1.6.26, N-(6-chloro-5-(2-(5-(4-cyclopropyl-2-fluorophenyl)-2-methyl-7,8-dihydro-[1,3,4]thiadiazolo[2′,3′:2,3]imidazo[4,5-c]pyridin-6(5H)-yl)-2-oxoethoxy)pyridin-2-yl)methanesulfonamide] | 12 nM
Cc1ncc(OCC(=O)N2CCc3nc4sc(C)nn4c3C2c2ccc(C3CC3)cc2F)c(C)n1 (stereo not shown) [Example 1.6.27, 1-(5-(4-cyclopropyl-2-fluorophenyl)-2-methyl-7,8-dihydro-[1,3,4]thiadiazolo[2′,3′:2,3]imidazo[4,5-c]pyridin-6(5H)-yl)-2-((2,4-dimethylpyrimidin-5-yl)oxy)ethanone] | 161 nM
Cc1nn2c3c(nc2s1)CCN(C(=O)COc1ccc(C(=O)N(C)C2CC2)nc1Cl)C3c1ccc(C2CC2)cc1F (stereo not shown) [Example 1.6.28, 6-chloro-N-cyclopropyl-5-(2-(5-(4-cyclopropyl-2-fluoro-phenyl)-2-methyl-7,8-dihydro-[1,3,4]thiadiazolo-[2′,3′:2,3]imidazo[4,5-c]pyridin-6(5H)-yl)-2-oxoethoxy)-N-methylpicolinamide] | 18 nM
Cc1nn2c3c(nc2s1)CCN(C(=O)COc1ccc(-c2ncco2)nc1Cl)C3c1ccc(C2CC2)cc1F (stereo not shown) [Example 1.6.29, 2-((2-chloro-6-(oxazol-2-yl)pyridin-3-yl)oxy)-1-(5-(4-cyclopropyl-2-fluorophenyl)-2-methyl-7,8-dihydro-[1,3,4]thiadiazolo[2′,3′:2,3]imidazo[4,5-c]pyridin-6(5H)-yl)ethanone] | 17 nM
CCc1ncccc1OCC(=O)N1CCc2nc3sc(C)nn3c2C1c1cnc(N2CCOCC2)s1 (stereo not shown) [Example 1.7.1, 2-((2-ethylpyridin-3-yl)oxy)-1-(2-methyl-5-(2-morpholinothiazol-5-yl)-7,8-dihydro-[1,3,4]thiadiazolo[2′,3′:2,3]imidazo[4,5-c]pyridin-6(5H)-yl)ethanone] | 337 nM
Cc1nn2c3c(nc2s1)CCN(C(=O)COc1ccc(N2CCOCC2)nc1Cl)C3c1cnc(N2CCOCC2)s1 (stereo not shown) [Example 1.7.2, 2-((2-chloro-6-morpholinopyridin-3-yl)oxy)-1-(2-methyl-5-(2-morpholinothiazol-5-yl)-7,8-dihydro-[1,3,4]thiadiazolo [2′,3′:2,3]imidazo[4,5-c]pyridin-6(5H)-yl)ethanone] | 32 nM
Cc1nn2c3c(nc2s1)CCN(C(=O)COc1cccnc1Cl)C3c1cnc(N2CCOCC2)s1 (stereo not shown) [Example 1.7.3, 2-((2-chloropyridin-3-yl)oxy)-1-(2-methyl-5-(2-morpholinothiazol-5-yl)-7,8-dihydro-[1,3,4]thiadiazolo [2′,3′:2,3]imidazo[4,5-c]pyridin-6(5H)-yl)ethanone] | 338 nM
Cc1nn2c3c(nc2s1)CCN(C(=O)COc1ccc(N(C)C)nc1Cl)C3c1cnc(N2CCOCC2)s1 (stereo not shown) [Example 1.7.4, 2-((2-chloro-6-(dimethylamino)pyridin-3-yl)oxy)-1-(2-methyl-5-(2-morpholinothiazol-5-yl)-7,8-dihydro-[1,3,4]thiadiazolo[2′,3′:2,3]imidazo[4,5-c]pyridin-6(5H)-yl)ethanone] | 408 nM
Cc1nn2c3c(nc2s1)CCN(C(=O)COc1ccc(N2CCOCC2)nc1Cl)C3c1cc(CN(C)C)cs1 (stereo not shown) [Example 1.8.1, 2-((2-chloro-6-morpholinopyridin-3-yl)oxy)-1-(5-(4-((dimethylamino)methyl)thiophen-2-yl)-2-methyl-7,8-dihydro-[1,3,4]thiadiazolo[2′,3′:2,3]imidazo[4,5-c]pyridin-6(5H)-yl)ethanone] | 18 nM
CCc1ncccc1OCC(=O)N1CCc2nc3sc(C)nn3c2C1c1cc(CN(C)C)cs1 (stereo not shown) [Example 1.8.2, 1-(5-(4-((dimethylamino)methyl)thiophen-2-yl)-2-methyl-7,8-dihydro-[1,3,4]thiadiazolo[2′,3′:2,3]imidazo[4,5-c]pyridin-6(5H)-yl)-2-((2-ethylpyridin-3-yl)oxy)ethanone] | 140 nM
Cc1nn2c3c(nc2s1)CCN(C(=O)COc1ccc(Cl)cc1C)C3c1cc(CN(C)C)cs1 (stereo not shown) [Example 1.8.3, 2-(4-chloro-2-methylphenoxy)-1-(5-(4-((dimethylamino)methyl)thiophen-2-yl)-2-methyl-7,8-dihydro-[1,3,4]thiadiazolo [2′,3′:2,3]imidazo[4,5-c]pyridin-6(5H)-yl)ethanone] | 95 nM
Cc1nn2c3c(nc2s1)CCN(C(=O)COc1ccc(N(C)C)nc1Cl)C3c1cc(CN(C)C)cs1 (stereo not shown) [Example 1.8.4, 2-((2-chloro-6-(dimethylamino)pyridin-3-yl)oxy)-1-(5-(4-((dimethylamino)methyl)thiophen-2-yl)-2-methyl-7,8-dihydro-[1,3,4]thiadiazolo[2′,3′:2,3]imidazo[4,5-c]pyridin-6(5H)-yl)ethanone] | 106 nM
Cc1nn2c3c(nc2s1)CCN(C(=O)COc1ccc(N(C)CC(F)(F)F)nc1Cl)C3c1cc(CN(C)C)cs1 (stereo not shown) [Example 1.8.5, 2-((2-chloro-6-(methyl(2,2,2-trifluoroethyl)amino)pyridine-3-yl)oxy)-1-(5-(4-((dimethylamino)methyl)thiophen-2-yl)-2-methyl-7,8-dihydro-[1,3,4]thiadiazolo[2′,3′:2,3]imidazo[4,5-c]pyridin-6(5H)-yl)ethanone] | 25 nM
